According to PMC7529893, “Structural basis for substrate recognition and chemical inhibition of oncogenic MAGE ubiquitin ligases” (Nature Communications, 2020):

Each molecule was assayed against T1, MAGE-A11:PCF11 interaction (GST-MAGE-A11 and FAM-PCF11_4) (Homo sapiens, UniProt P43364) (assay: TR-FRET primary / single point screen at 15 µM). Conditions: single point TR-FRET screening of 797 quinoline compounds against MAGE-A11:PCF11.
T1 construct: GST-MAGE-A11 MHD (human MAGE-A11 MHD amino acid 218-429); made in house; host or cells: E. coli BL21(DE3)
T1 sequence (P43364 218-429): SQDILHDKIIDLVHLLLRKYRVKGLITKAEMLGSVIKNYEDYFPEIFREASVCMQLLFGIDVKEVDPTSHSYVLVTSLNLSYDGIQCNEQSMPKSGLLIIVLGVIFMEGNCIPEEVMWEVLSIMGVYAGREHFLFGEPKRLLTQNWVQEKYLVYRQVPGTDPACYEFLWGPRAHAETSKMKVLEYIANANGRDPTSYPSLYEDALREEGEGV
Format: binding
In short: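 TR-FRET 520/490 nm emission ratio was read after 90 min at room temperature. Wells held 5 nM GST-MAGE-A11, 5 nM Tb-anti-GST, 200 nM FAM-PCF11_4 and 15 µM compound in Tris pH 7.5 buffer with MgCl2, BSA and DTT. %Inhibition was scaled to DMSO and minus-MAGE-A11 controls.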

Compound | percent inhibition (TR-FRET)
CCCN(CCCNc1c2ccc(Cl)cc2nc2ccc(OC)cc12)Cc1ccc(C)s1 [SJ000520927] | -124.818
CCC(CC)CN(CCCCNc1ccnc2cc(Cl)ccc12)Cc1ccccc1 [SJ000361195] | 25.5382
CCc1nc2ccccc2c(NC(=O)CN2CCN(c3ccccc3)CC2)c1C [SJ000111681] | 6.8942
CN(C)c1cc(NC(=O)CN2CCOCC2)c2ccccc2n1 [SJ000111677] | 4.988
COc1ccc2nc3cc(Cl)ccc3c(NCCCNCc3nccs3)c2c1 [SJ000520989] | -355.207
CCc1ccc(S(=O)(=O)c2cnc3ccccc3c2N2CCN(c3ccc(OC)cc3)CC2)cc1 [SJ000117074] | -11.204
Cc1cc(C)c(CN(CCCCNc2ccnc3cc(Cl)ccc23)Cc2ccccc2)c(C)c1 [SJ000361193] | 26.0268
COc1ccc(F)c(CNCCCNc2c3ccc(Cl)cc3nc3ccc(OC)cc23)c1 [SJ000520998] | -354.997
CCOC(=O)c1cnc2c(Cl)cccc2c1NCCN1CCOCC1 [SJ000163436] | -6.529
O=[N+]([O-])c1ccccc1CN(CCCCNc1ccnc2cc(Cl)ccc12)Cc1ccccc1 [SJ000361200] | 17.2064
COc1ccc2nc3cc(Cl)ccc3c(NCCCNCc3ccccc3C(F)(F)F)c2c1 [SJ000361095] | -169.468
COc1ccc(CN(CCCCNc2ccnc3cc(Cl)ccc23)Cc2ccccc2)cc1OC [SJ000522728] | 0.05797
CCC(CC)CN1CCC(Nc2ccnc3cc(Cl)ccc23)CC1 [SJ000523086] | 9.754
COc1ccc2nc3cc(Cl)ccc3c(NCCCNCc3c(F)cccc3OC)c2c1 [SJ000520915] | -298.775
Fc1ccc(CN(CCCCNc2ccnc3cc(Cl)ccc23)Cc2ccccc2)cc1 [SJ000522725] | 30.2004
CCc1ccc(S(=O)(=O)c2cnc3ccccc3c2N2CCN(c3ccccc3F)CC2)cc1 [SJ000117079] | -56.5833
CCN1CCN(c2c(S(=O)(=O)c3ccc(C)c(C)c3)cnc3ccc(OC)cc23)CC1 [SJ000247335] | -4.579
CCc1nc2ccccc2c(NC(=O)CNC(C)(C)CC(C)(C)C)c1C [SJ000049110] | -0.6045

Compound | percent inhibition (TR-FRET)
Cc1cc(NC(=O)CN[C@H]2CCN(Cc3ccccc3)C2)c2ccccc2n1 [SJ000832405] | 4.364
CCc1ccc2ncc(S(=O)(=O)c3ccc(C)c(C)c3)c(N3CCN(CC)CC3)c2c1 [SJ000247334] | -4.712
O=C(C[C@H]1CC[C@]2(CC1)OO[C@]1(O2)C2CC3CC(C2)CC1C3)NCCCCNc1ccnc2cc(Cl)ccc12 [SJ000578384] | 25.1182
Cc1ccc(S(=O)(=O)c2cnc3ccccc3c2N2CCN(c3ccccc3)CC2)cc1 [SJ000117047] | -6.567
CCCN(CCCCNc1ccnc2cc(Cl)ccc12)Cc1ccccc1 [SJ000311205] | 7.684
Clc1ccc2c(NCCCCN(Cc3ccccc3)Cc3ccc(Br)o3)ccnc2c1 [SJ000312684] | 14.9636
CCOc1ccc2ncc(S(=O)(=O)c3ccccc3)c(N3CCN(c4ccc(F)cc4)CC3)c2c1 [SJ000083979] | -181.288
CCCN(CCCNc1c2ccc(Cl)cc2nc2ccc(OC)cc12)Cc1cc(C)ccc1C [SJ000520960] | -119.324
Clc1ccc2c(NCCCCN(Cc3ccccc3)Cc3cccc4c3OCO4)ccnc2c1 [SJ000520436] | 21.6545
CCCN(CCCNc1c2ccc(Cl)cc2nc2ccc(OC)cc12)Cc1ccccc1[N+](=O)[O-] [SJ000520947] | -228.339
CCc1ccc2ncc(S(=O)(=O)c3ccc(C)c(C)c3)c(N3CCN(C)CC3)c2c1 [SJ000247332] | 2.973
Cc1ccc(S(=O)(=O)c2cnc3ccc(C)cc3c2N2CCN(c3ccc(F)cc3)CC2)cc1 [SJ000117058] | -4.068
CCN(CC)CCCC(C)Nc1c2ccc(Cl)cc2nc2ccc(OC)cc12 (centres unmarked) [SJ000285202] | -265.674
COc1ccc2nc3cc(Cl)ccc3c(NCCCNCc3sccc3C)c2c1 [SJ000361094] | -321.32
CCCCCCN(CCCCNc1ccnc2cc(Cl)ccc12)Cc1ccccc1 [SJ000361212] | 23.5778
CCOC(=O)c1cnc2c(C)cc(C)cc2c1NCCN(C)C [SJ000037396] | 4.92
Cc1ccc(S(=O)(=O)c2cnc3ccccc3c2N2CCN(c3ccc(F)cc3)CC2)cc1C [SJ000117062] | -54.8642
COc1ccc2nc3cc(Cl)ccc3c(NCCCNCc3cc(OC(F)(F)F)ccc3OC)c2c1 [SJ000521001] | -231.84

Same assay, conditions: single point TR-FRET screening of quinoline compounds against MAGE-A11:PCF11; 15 µM

Compound | percent inhibition (TR-FRET)
COc1ccc2nc3cc(Cl)ccc3c(NCCCNCc3ccc(-c4cccc(Cl)c4)o3)c2c1 [SJ000522959] | -47.4182
CC(CCNCCCNc1ccnc2cc(Cl)ccc12)c1ccccc1 (centres unmarked) [SJ000523053] | 19.0144
Cn1cc(CN(CCCNc2ccnc3cc(Cl)ccc23)Cc2ccccc2)c2ccccc21 [SJ000520439] | -9.311
CCCN(CCCNc1ccnc2cc(Cl)ccc12)Cc1cccc(C)c1 [SJ000523041] | 28.5489
CCCN(CCCNc1ccnc2cc(Cl)ccc12)CCOCc1ccccc1 [SJ000357577] | -13.1805
CCCN(CCCNc1ccnc2cc(C(F)(F)F)ccc12)Cc1nc(C)cs1 [SJ000521010] | 0.8927
CCCN(CCCNc1ccnc2cc(Cl)ccc12)Cc1cc(C(F)(F)F)ccc1OC [SJ000523012] | 30.3991
CCCN(CCCNc1c2ccc(Cl)cc2nc2ccc(OC)cc12)Cc1sccc1C [SJ000520921] | -83.8109
CCC(C)CNCCCNc1ccnc2cc(C(F)(F)F)ccc12 (centres unmarked) [SJ000361112] | 18.4697
Clc1ccc2c(NCCCN(Cc3ccccc3)Cc3cccs3)ccnc2c1 [SJ000312672] | 4.744
CCCN(CCCNc1c2ccc(Cl)cc2nc2ccc(OC)cc12)Cc1c(Cl)ccc(Cl)c1Cl [SJ000523021] | 40.005
Clc1ccc2c(NCCCNCc3cc(Br)cs3)ccnc2c1 [SJ000521028] | 22.1075
CCCN(CCCNc1ccnc2cc(C(F)(F)F)ccc12)Cc1ccccn1 [SJ000361252] | 15.1623
CCCNCCCNc1ccnc2cc(Cl)ccc12 [SJ000361119] | 9.7847
COc1cccc(CN(CCCNc2ccnc3cc(Cl)ccc23)Cc2ccccc2)c1 [SJ000361188] | -9.05
CCCCN(CCCNc1ccnc2cc(Cl)ccc12)Cc1ccccc1 [SJ000357579] | 19.3068
CCCN(CCCNc1ccnc2cc(C(F)(F)F)ccc12)Cc1ccc(C)o1 [SJ000361261] | 23.9069
Cc1cc(C)c(CN(CCCNc2ccnc3cc(Cl)ccc23)Cc2ccccc2)c(C)c1 [SJ000361169] | 31.1941

Compound | percent inhibition (TR-FRET)
CCCN(CCCNc1ccnc2cc(C(F)(F)F)ccc12)Cc1ccsc1 [SJ000361254] | 28.8755
Clc1ccc2c(NCCCN(Cc3ccccc3)Cc3cc4ccccc4o3)ccnc2c1 [SJ000520461] | 5.6
CCCN(CCCNc1c2ccc(Cl)cc2nc2ccc(OC)cc12)Cc1cc2ccccc2s1 [SJ000522962] | -21.5824
C#Cc1ccccc1CN(CCC)CCCNc1ccnc2cc(Cl)ccc12 [SJ000523000] | 12.4462
CCCN(CCCNc1ccnc2cc(C(F)(F)F)ccc12)Cc1ncc[nH]1 [SJ000575181] | 9.345
CCCN(CCCNc1ccnc2cc(C(F)(F)F)ccc12)Cc1ccc(C)s1 [SJ000361258] | 19.0825
CN(C)c1cccc(Oc2ccc3c(NCCCNCc4ccco4)ccnc3c2)c1 [SJ000311230] | 63.4168
CCCN(CCCNc1ccnc2cc(Cl)ccc12)Cc1nccs1 [SJ000357454] | 11.9552
CCCN(CCCNc1c2ccc(Cl)cc2nc2ccc(OC)cc12)Cc1ccc(-c2ccccc2)cc1 [SJ000522740] | -74.0063
CCCN(CCCNc1c2ccc(Cl)cc2nc2ccc(OC)cc12)Cc1cccc([N+](=O)[O-])c1 [SJ000520948] | -10.7413
CCCN(CCCNc1ccnc2cc(C(F)(F)F)ccc12)Cc1ccco1 [SJ000361265] | 24.1057
CCCCCCNCCCNc1ccnc2cc(C(F)(F)F)ccc12 [SJ000361124] | 31.6112
COc1ccc2nc3cc(Cl)ccc3c(NCCCNCc3ccc[nH]3)c2c1 [SJ000361084] | 0.9854
CCCN(CCCNc1ccnc2cc(Cl)ccc12)Cc1ncc[nH]1 [SJ000523008] | 4.165
Clc1ccc2c(NCCCN(Cc3ccccc3)Cc3nccs3)ccnc2c1 [SJ000312676] | -4.148
Clc1ccc2c(NCCCNCC3CCCCC3)ccnc2c1 [SJ000361102] | 15.626
Clc1ccc2c(NCCCNCc3ccsc3)ccnc2c1 [SJ000523052] | 15.2459
